From patent publication US20240358693A1, “METHODS OF TREATING PAIN” (Aisa Pharma, Inc., priority 2023, published 2024)

Tested on: participants with SSc-RP
Assay: Frequency of weekly RP attacks (all attacks; primary efficacy endpoint)
Format: in vivo, human
Settings: for Weekly RP Attacks (All Attacks) Change from Baseline, Mean / Weekly RP Attacks (All Attacks) Change from Baseline, Median / Weekly RP Attacks (All Attacks) Percent Change from Baseline, Mean / Weekly RP Attacks (All Attacks) Percent Change from Baseline, Median / Weekly RP Attacks (All Attacks), Mean / Weekly RP Attacks (All Attacks), Median: Excluding Outliers, by Baseline RCS, ITT Part A; for Weekly RP Attacks Change from Baseline, Max / Weekly RP Attacks Change from Baseline, Mean (SD) / Weekly RP Attacks Change from Baseline, Median / Weekly RP Attacks Change from Baseline, Min / Weekly RP Attacks Change from Baseline, Q1 / Weekly RP Attacks Change from Baseline, Q3 / Weekly RP Attacks Percent Change from Baseline, Max / Weekly RP Attacks Percent Change from Baseline, Mean (SD) / Weekly RP Attacks Percent Change from Baseline, Median / Weekly RP Attacks Percent Change from Baseline, Min / Weekly RP Attacks Percent Change from Baseline, Q1 / Weekly RP Attacks Percent Change from Baseline, Q3 / Weekly RP Attacks, Max / Weekly RP Attacks, Mean (SD) / Weekly RP Attacks, Median / Weekly RP Attacks, Min / Weekly RP Attacks, Q1 / Weekly RP Attacks, Q3: all attacks, excluding outliers, tadalafil 5 mg daily
Text: Percent change from baseline evaluation for frequency of weekly RP attacks were or will be used as the primary efficacy variable. The sponsor-developed participant-informed diary will be used to record data. Frequency of weekly RP attacks is defined as the total number of RP attacks divided by the number of days with available diary data within the last 7 days of each dosing period then multiplied by 7. Total number of RP attacks during the last 7 days of screening period divided by the number of days with available data then multiplied by 7 will be used as baseline for the analysis of all periods. The variable will be calculated as follows:
Percentage change={(weekly RP attacks for the last 7 days of each dosing period−Baseline weekly RP attacks)/Baseline weekly RP attacks}*100%.
Absolute change=weekly RP attacks for the last 7 days of each dosing period−Baseline weekly RP attacks
Percent change from baseline evaluation for frequency of weekly RP attacks was and will be the primary efficacy endpoint. Frequency of weekly RP attacks is defined as the total number of RP attacks divided by the number of days with available diary data within the last 7 days of each dosing period then multiplied by 7. Total number of RP attacks during the last 7 days of screening period divided by the number of days with available data then multiplied by 7 will be used as baseline for the analysis of all periods.
Percent change from baseline evaluation for frequency of weekly RP attacks were the primary efficacy endpoint. Data collected in the last 7 days of each dosing period were used for this analysis. Screening assessments were used as baseline for the analysis of all periods. No multiple comparison adjustment were used to control alpha for the multiple comparisons. Mixed effects model were used for analysis of the primary endpoint according to the crossover design. Other efficacy endpoints of continuous variables were analyzed using similar methodology. For nominal data, chi-square tests were applied. Generalized Estimating Equations method were used, as appropriate, for adjusting for potential confounding factors. In addition, the final analysis assessed whether in this study of severe Raynaud's disease participants, the minimally important difference, previously concluded of 14-15 points on the 100 point RCS scale had been achieved in the cilnidipine dose group. It also recorded the percentage of participants achieving a PASS (34 point difference from baseline on a 0-100 VAS) in each treatment group.

[1] = Cilnidipine 10 mg, n=1, first subgroup
[2] = Cilnidipine 20 mg (n=3), subgroup n = 2
[3] = Cilnidipine 20 mg, n=2, first subgroup
[4] = Pooled Cilnidipine 10 mg and Cilnidipine 10 mg + Tadalafil 5 mg, n=1, second subgroup
[5] = Pooled Cilnidipine 10 mg and Cilnidipine 10 mg + Tadalafil 5 mg, n=2, first subgroup
[6] = Pooled Cilnidipine 20 mg and Cilnidipine 20 mg + Tadalafil 5 mg, n=1, second subgroup
[7] = Pooled Cilnidipine 20 mg and Cilnidipine 20 mg + Tadalafil 5 mg, n=3, first subgroup
[8] = Pooled Cilnidipine (n = 7), subgroup n = 2
[9] = Pooled Cilnidipine, n=3, first subgroup
[10] = pooled cilnidipine 10 mg and 20 mg

SMILES: COCCOC(=O)C1=C(C)NC(C)=C(C(=O)OC/C=C/c2ccccc2)C1c1cccc([N+](=O)[O-])c1 (stereo not drawn) [Cilnidipine, cilnidipine]
- reduction in weekly frequency of typical Raynaud attacks (10 mg of cilnidipine (n=3 for both doses)): 28%
- reduction in weekly frequency of typical Raynaud attacks (20 mg of cilnidipine (n=3 for both doses)): 46%
- Weekly RP Attacks (All Attacks) Change from Baseline, Mean [1]: −9.00
- Weekly RP Attacks (All Attacks) Change from Baseline, Median [1]: −9.00
- Weekly RP Attacks (All Attacks) Percent Change from Baseline, Mean [1]: −28.13%
- Weekly RP Attacks (All Attacks) Percent Change from Baseline, Median [1]: −28.13%
- Weekly RP Attacks (All Attacks), Mean [1]: 23.00
- Weekly RP Attacks (All Attacks), Median [1]: 23.00
- Subgroup Baseline RCS, <3.5 baseline (Cilnidipine 20 mg (n=3), subgroup n = 1): <3.5 baseline −42%
- Subgroup Baseline RCS, >3.5-7.5 baseline [2]: >3.5-7.5 baseline −43%
- Subgroup attack frequency, <10 baseline [2]: <10 baseline −29%
- Subgroup attack frequency, >10 baseline [2]: >10 baseline −50%
- Weekly RP Attacks (All Attacks) Change from Baseline, Mean [3]: −6.67
- Weekly RP Attacks (All Attacks) Change from Baseline, Median [3]: −6.67
- Weekly RP Attacks (All Attacks) Percent Change from Baseline, Mean [3]: −45.71%
- Weekly RP Attacks (All Attacks) Percent Change from Baseline, Median [3]: −45.71%
- Weekly RP Attacks (All Attacks), Mean [3]: 8.00
- Weekly RP Attacks (All Attacks), Median [3]: 8.00
- Mean % reduction of weekly attacks from baseline (Cilnidipine (20 mg) (n = 3)): 43%
- Mean weekly attacks at baseline (Cilnidipine (20 mg) (n = 3)): 12.7
- Weekly attack frequency (Cilnidipine (20 mg) (n = 3)): −43%
- Weekly attack frequency, If baseline RCS <3.5 (Cilnidipine (20 mg) (n = 3)): −42%
- Weekly RP Attacks (All Attacks) Change from Baseline, Mean [4]: −5.00
- Weekly RP Attacks (All Attacks) Change from Baseline, Median [4]: −5.00
- Weekly RP Attacks (All Attacks) Percent Change from Baseline, Mean [4]: −45.45%
- Weekly RP Attacks (All Attacks) Percent Change from Baseline, Median [4]: −45.45%
- Weekly RP Attacks (All Attacks), Mean [4]: 6.00
- Weekly RP Attacks (All Attacks), Median [4]: 6.00
- Weekly RP Attacks (All Attacks) Change from Baseline, Mean [5]: −6.50
- Weekly RP Attacks (All Attacks) Change from Baseline, Median [5]: −6.50
- Weekly RP Attacks (All Attacks) Percent Change from Baseline, Mean [5]: −36.28%
- Weekly RP Attacks (All Attacks) Percent Change from Baseline, Median [5]: −36.28%
- Weekly RP Attacks (All Attacks), Mean [5]: 14.00
- Weekly RP Attacks (All Attacks), Median [5]: 14.00
- Weekly RP Attacks (All Attacks) Change from Baseline, Mean [6]: −1.83
- Weekly RP Attacks (All Attacks) Change from Baseline, Median [6]: −1.83
- Weekly RP Attacks (All Attacks) Percent Change from Baseline, Mean [6]: −14.29%
- Weekly RP Attacks (All Attacks) Percent Change from Baseline, Median [6]: −14.29%
- Weekly RP Attacks (All Attacks), Mean [6]: 11.00
- Weekly RP Attacks (All Attacks), Median [6]: 11.00
- Weekly RP Attacks (All Attacks) Change from Baseline, Mean [7]: −5.78
- Weekly RP Attacks (All Attacks) Change from Baseline, Median [7]: −4.33
- Weekly RP Attacks (All Attacks) Percent Change from Baseline, Mean [7]: −37.49%
- Weekly RP Attacks (All Attacks) Percent Change from Baseline, Median [7]: −45.00%
- Weekly RP Attacks (All Attacks), Mean [7]: 10.33
- Weekly RP Attacks (All Attacks), Median [7]: 11.00
- Weekly attack frequency (Pooled Cilnidipine (n = 7)): −41%
- Weekly attack frequency, If baseline RCS <3.5 (Pooled Cilnidipine (n = 7)): −27%
- Subgroup Baseline RCS, 3.5-7.5 baseline (Pooled Cilnidipine (n = 7), subgroup n = 1): 3.5-7.5 baseline −86%
- Subgroup attack frequency, <10 baseline [8]: <10 baseline −55%
- Subgroup attack frequency, >10 baseline [8]: >10 baseline −28%
- Subgroup Baseline RCS, <3.5 baseline (Pooled Cilnidipine (n = 7), subgroup n = 3): <3.5 baseline −27%
- Weekly RP Attacks (All Attacks) Change from Baseline, Mean [9]: −7.44
- Weekly RP Attacks (All Attacks) Change from Baseline, Median [9]: −9.00
- Weekly RP Attacks (All Attacks) Percent Change from Baseline, Mean [9]: −39.85%
- Weekly RP Attacks (All Attacks) Percent Change from Baseline, Median [9]: −45.00%
- Weekly RP Attacks (All Attacks), Mean [9]: 13.00
- Weekly RP Attacks (All Attacks), Median [9]: 11.00
- Weekly RP Attacks Change from Baseline, Max (cilnidipine 10 mg): −9.0, −9.0
- Weekly RP Attacks Change from Baseline, Mean (SD) (cilnidipine 10 mg): −9.00
- Weekly RP Attacks Change from Baseline, Median (cilnidipine 10 mg): −9.00
- Weekly RP Attacks Change from Baseline, Min (cilnidipine 10 mg): −9.0, −9.0
- Weekly RP Attacks Change from Baseline, Q1 (cilnidipine 10 mg): −9.00, −9.00
- Weekly RP Attacks Change from Baseline, Q3 (cilnidipine 10 mg): −9.00, −9.00
- Weekly RP Attacks Percent Change from Baseline, Max (cilnidipine 10 mg): −28.1, −28.1%
- Weekly RP Attacks Percent Change from Baseline, Mean (SD) (cilnidipine 10 mg): −28.13%
- Weekly RP Attacks Percent Change from Baseline, Median (cilnidipine 10 mg): −28.13%
- Weekly RP Attacks Percent Change from Baseline, Min (cilnidipine 10 mg): −28.1, −28.1%
- Weekly RP Attacks Percent Change from Baseline, Q1 (cilnidipine 10 mg): −28.13, −28.13%
- Weekly RP Attacks Percent Change from Baseline, Q3 (cilnidipine 10 mg): −28.13, −28.13%
- Weekly RP Attacks, Max (cilnidipine 10 mg): 23.0, 23.0
- Weekly RP Attacks, Mean (SD) (cilnidipine 10 mg): 23.00
- Weekly RP Attacks, Median (cilnidipine 10 mg): 23.00
- Weekly RP Attacks, Min (cilnidipine 10 mg): 23.0, 23.0
- Weekly RP Attacks, Q1 (cilnidipine 10 mg): 23.00, 23.00
- Weekly RP Attacks, Q3 (cilnidipine 10 mg): 23.00, 23.00
- Weekly RP Attacks Change from Baseline, Max (cilnidipine 20 mg): −4.3
- Weekly RP Attacks Change from Baseline, Mean (SD) (cilnidipine 20 mg): −6.67 (3.300)
- Weekly RP Attacks Change from Baseline, Median (cilnidipine 20 mg): −6.67
- Weekly RP Attacks Change from Baseline, Min (cilnidipine 20 mg): −9.0
- Weekly RP Attacks Change from Baseline, Q1 (cilnidipine 20 mg): −9.00
- Weekly RP Attacks Change from Baseline, Q3 (cilnidipine 20 mg): −4.33
- Weekly RP Attacks Percent Change from Baseline, Max (cilnidipine 20 mg): −45.0%
- Weekly RP Attacks Percent Change from Baseline, Mean (SD) (cilnidipine 20 mg): −45.71 (1.010) Percent
- Weekly RP Attacks Percent Change from Baseline, Median (cilnidipine 20 mg): −45.71%
- Weekly RP Attacks Percent Change from Baseline, Min (cilnidipine 20 mg): −46.4%
- Weekly RP Attacks Percent Change from Baseline, Q1 (cilnidipine 20 mg): −46.43%
- Weekly RP Attacks Percent Change from Baseline, Q3 (cilnidipine 20 mg): −45.00%
- Weekly RP Attacks, Max (cilnidipine 20 mg): 11.0
- Weekly RP Attacks, Mean (SD) (cilnidipine 20 mg): 8.00 (4.243)
- Weekly RP Attacks, Median (cilnidipine 20 mg): 8.00
- Weekly RP Attacks, Min (cilnidipine 20 mg): 5.0
- Weekly RP Attacks, Q1 (cilnidipine 20 mg): 5.00
- Weekly RP Attacks, Q3 (cilnidipine 20 mg): 11.00
- Weekly RP Attacks Change from Baseline, Max [10]: −4.3
- Weekly RP Attacks Change from Baseline, Mean (SD) [10]: −7.44 (2.694)
- Weekly RP Attacks Change from Baseline, Median [10]: −9.00
- Weekly RP Attacks Change from Baseline, Min [10]: −9.0
- Weekly RP Attacks Change from Baseline, Q1 [10]: −9.00
- Weekly RP Attacks Change from Baseline, Q3 [10]: −4.33
- Weekly RP Attacks Percent Change from Baseline, Max [10]: −28.1%
- Weekly RP Attacks Percent Change from Baseline, Mean (SD) [10]: −39.85 (10.180) Percent
- Weekly RP Attacks Percent Change from Baseline, Median [10]: −45.00%
- Weekly RP Attacks Percent Change from Baseline, Min [10]: −46.4%
- Weekly RP Attacks Percent Change from Baseline, Q1 [10]: −46.43%
- Weekly RP Attacks Percent Change from Baseline, Q3 [10]: −28.13%
- Weekly RP Attacks, Max [10]: 23.0
- Weekly RP Attacks, Mean (SD) [10]: 13.00 (9.165)
- Weekly RP Attacks, Median [10]: 11.00
- Weekly RP Attacks, Min [10]: 5.0
- Weekly RP Attacks, Q1 [10]: 5.00
